Earlier results in paper PMC9516332 (Frontiers in Oncology, 2022).
Read-outs that look alike come from different tables or passages of the source.

Experiments:
[1] = target: panel of 255 wild-type kinases (Homo sapiens, UniProt O00311); settings: CDC7/ASK kinase assay, 1 µmol/L single concentration, cited from earlier work
[2] = target: panel of 255 wild-type kinases (Homo sapiens, UniProt P06241); settings: kinase FYN [isoform a], 1 µmol/L single concentration, cited from earlier work
[3] = target: panel of 255 wild-type kinases (Homo sapiens, UniProt P06493); settings: CDC2/CycB1 kinase assay, 1 µmol/L single concentration, cited from earlier work
[4] = target: panel of 255 wild-type kinases (Homo sapiens, UniProt P08581); settings: MET, 1 µmol/L single concentration, cited from earlier work
[5] = target: panel of 255 wild-type kinases (Homo sapiens, UniProt P31751); settings: AKT2 kinase assay, 1 µmol/L single concentration, cited from earlier work
[6] = target: panel of 255 wild-type kinases (Homo sapiens, UniProt P49137); settings: kinase MAPKAPK2, 1 µmol/L single concentration, cited from earlier work
[7] = target: panel of 255 wild-type kinases (Homo sapiens, UniProt P51451); settings: BLK kinase assay, 1 µmol/L single concentration, cited from earlier work
[8] = target: panel of 255 wild-type kinases (Homo sapiens, UniProt Q13153); settings: PAK1, 1 µmol/L single concentration, cited from earlier work
[9] = target: T1, panel of 255 wild-type kinases (Homo sapiens, UniProt Q13188); settings: MST2, 1 µmol/L single concentration, cited from earlier work
T1 sequence (Q13188 1-491): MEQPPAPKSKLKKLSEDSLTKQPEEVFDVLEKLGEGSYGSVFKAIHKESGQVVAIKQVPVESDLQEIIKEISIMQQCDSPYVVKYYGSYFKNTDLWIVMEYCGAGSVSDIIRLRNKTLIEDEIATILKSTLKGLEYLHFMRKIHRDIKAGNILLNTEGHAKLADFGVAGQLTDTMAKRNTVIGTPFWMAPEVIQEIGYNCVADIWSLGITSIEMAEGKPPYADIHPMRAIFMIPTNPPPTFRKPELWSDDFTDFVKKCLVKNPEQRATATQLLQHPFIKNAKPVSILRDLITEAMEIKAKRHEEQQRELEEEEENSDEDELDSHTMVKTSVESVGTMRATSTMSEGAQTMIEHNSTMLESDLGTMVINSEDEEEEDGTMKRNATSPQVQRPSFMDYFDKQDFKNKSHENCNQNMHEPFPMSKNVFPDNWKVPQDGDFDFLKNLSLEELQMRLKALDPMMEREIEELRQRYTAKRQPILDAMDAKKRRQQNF

[10] = target: panel of 255 wild-type kinases (Homo sapiens, UniProt Q15375); settings: kinase EPHA7, 1 µmol/L single concentration, cited from earlier work
[11] = target: panel of 255 wild-type kinases (Homo sapiens, UniProt Q15418); settings: kinase RSK1, 1 µmol/L single concentration, cited from earlier work
[12] = target: T2, panel of 255 wild-type kinases (Homo sapiens, UniProt Q16566); settings: CaMK4 kinase assay, 1 µmol/L single concentration, cited from earlier work
T2 sequence (Q16566 1-473): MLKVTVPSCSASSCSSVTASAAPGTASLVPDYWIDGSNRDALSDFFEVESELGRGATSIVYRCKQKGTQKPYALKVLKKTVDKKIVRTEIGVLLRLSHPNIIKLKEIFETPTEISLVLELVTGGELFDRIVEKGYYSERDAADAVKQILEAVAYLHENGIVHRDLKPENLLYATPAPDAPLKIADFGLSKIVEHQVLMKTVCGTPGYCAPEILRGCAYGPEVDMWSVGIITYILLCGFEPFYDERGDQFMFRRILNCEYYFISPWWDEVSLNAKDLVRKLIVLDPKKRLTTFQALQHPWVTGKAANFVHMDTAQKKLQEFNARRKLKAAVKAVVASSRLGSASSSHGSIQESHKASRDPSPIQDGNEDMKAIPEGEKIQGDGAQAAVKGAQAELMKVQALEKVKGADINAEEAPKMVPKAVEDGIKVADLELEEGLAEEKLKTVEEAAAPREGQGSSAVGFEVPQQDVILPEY

[13] = target: panel of 255 wild-type kinases (Homo sapiens, UniProt Q9Y243); settings: AKT3 kinase assay, 1 µmol/L single concentration, cited from earlier work
[14] = tested on: panel of 255 wild-type kinases; settings: cited from earlier work
[15] = target: panel of 255 wild-type kinases (Homo sapiens, UniProt P41240); settings: kinase CSK, 1 µmol/L single concentration, cited from earlier work
[16] = ref DOI: 10.1158/1535-7163.MCT-18-0877
[17] = ref DOI: 10.1371/journal.pone.0092146

SMILES | %-inhibition CDC7/ASK [1, 16] [%] | %-inhibition at 1 µmol/L, FYN [isoform a] [2, 16] [%] | %-inhibition CDC2/CycB1 [3, 16] [%] | %-inhibition, MET [4, 16] [%] | %-inhibition AKT2 [5, 16] [%] | %-inhibition at 1 µmol/L, MAPKAPK2 [6, 16] [%] | %-inhibition BLK [7, 16] [%] | %-inhibition, PAK1 [8, 16] [%] | %-inhibition, MST2 [9, 16] [%] | %-inhibition at 1 µmol/L, EPHA7 [10, 16] [%] | %-inhibition at 1 µmol/L, RSK1 [11, 16] [%] | %-inhibition CaMK4 [12, 16] [%] | %-inhibition AKT3 [13, 16] [%] | %-inhibition at 1 µmol/L, CSK [15, 17] [%] | %-inhibition at 1 µmol/L, LYNb [14] [%] | %-inhibition at 1 µmol/L, PKCβ2 [14] [%] | %-inhibition at 1 µmol/L, SRM [14] [%] | %-inhibition at 1 µmol/L, CSK [15, 16] [%] | further results
C=CC(=O)N1CCC[C@@H](n2nc(-c3ccc(Oc4ccccc4)cc3)c3c(N)ncnc32)C1 [ibrutinib] | -1 | 93 | -1 | 12 | -3 | -13 | 101 | 6.57 | 17 | 7 | 5.47 | 3 | -2.25 |  |  |  |  |  | %-inhibition at 1 µmol/L, FYN [isoform b] ([14]; kinase FYN [isoform b], 1 µmol/L single concentration, ref DOI: 10.1158/1535-7163.MCT-18-0877): 87%; %-inhibition at 1 µmol/L, LYNb ([14]; kinase LYNb, 1 µmol/L single concentration, ref DOI: 10.1158/1535-7163.MCT-18-0877): 100%; %-inhibition at 1 µmol/L, PKCβ2 ([14]; kinase PKCβ2, 1 µmol/L single concentration, ref DOI: 10.1158/1535-7163.MCT-18-0877): 1.78%; %-inhibition at 1 µmol/L, SRM ([14]; kinase SRM, 1 µmol/L single concentration, ref DOI: 10.1158/1535-7163.MCT-18-0877): 102%
C[C@@H](Oc1cc(-c2cnn(C3CCNCC3)c2)cnc1N)c1c(Cl)ccc(F)c1Cl [crizotinib] |  |  |  |  |  |  |  |  |  |  |  |  |  | 9 | 34 | -1.6 | 1.51 |  | %-inhibition at 1 µmol/L, FYN [isoform a] [2, 17]: 42%; %-inhibition CDC2/CycB1 [3, 17]: 19%; %-inhibition AKT2 [5, 17]: -2.67%; %-inhibition at 1 µmol/L, MAPKAPK2 [6, 17]: -17%; %-inhibition, PAK1 [8, 17]: -4%; %-inhibition, MST2 [9, 17]: 13%; %-inhibition at 1 µmol/L, RSK1 [11, 17]: -5%; %-inhibition AKT3 [13, 17]: -1.83%
C=CC(=O)Nc1cc(Nc2nccc(-c3cn(C)c4ccccc34)n2)c(OC)cc1N(C)CCN(C)C [osimertinib] | 1.64 | 0.721 | 23 | 12 | 2.2 | -9 | 66 | -44 |  | 2.35 | 42 | 2.5 | -1.74 |  | 10 | 17 | 32 | 9 | %-inhibition at 1 µmol/L, FYN [isoform b] [14]: 14%
CC(C)(C)c1nc(-c2cccc(NS(=O)(=O)c3c(F)cccc3F)c2F)c(-c2ccnc(N)n2)s1 [dabrafenib] |  |  |  |  |  |  |  |  |  |  |  |  |  | 98 |  |  |  |  | %-inhibition CDC7/ASK [1, 17]: -6%; %-inhibition, MET [4, 17]: 27%; %-inhibition BLK [7, 17]: 80%; %-inhibition at 1 µmol/L, EPHA7 [10, 17]: 13%; %-inhibition CaMK4 [12, 17]: 78%; %-inhibition at 1 µmol/L, LYNb ([14]; kinase LYNb, 1 µmol/L single concentration, ref DOI: 10.1371/journal.pone.0092146): 86%; %-inhibition at 1 µmol/L, PKCβ2 ([14]; kinase PKCβ2, 1 µmol/L single concentration, ref DOI: 10.1371/journal.pone.0092146): -3%; %-inhibition at 1 µmol/L, SRM ([14]; kinase SRM, 1 µmol/L single concentration, ref DOI: 10.1371/journal.pone.0092146): 100%
CO[C@@H]1[C@H](N(C)C(=O)c2ccccc2)C[C@H]2O[C@]1(C)n1c3ccccc3c3c4c(c5c6ccccc6n2c5c31)C(=O)NC4 [midostaurin] | 60 | 78 | 22 | 45 |  | -12 | 84 |  | 98 | 19 | 98 | 3.79 |  |  |  |  |  | 58 | 
